Source: patent US10358469B2, “Methods and pharmaceutical compositions for the treatment of cancer” (INSERM (INSTITUT NATIONAL DE LA SANTÉ ET DE LA RECHERCHE …, priority 2014, dated 2019)

Columns and labels:
solid tumor cell lines = test: Cell viability (MTT) of an array of solid tumor cell lines under low serum; assay type: cell-based; details: increasing concentrations, 24 hours, low serum conditions, FIG. 1B
Protocol: (A) Karpas 1106, SU-DHL-5, SeAx and HUT-78 cells were plated at a densities of 6×10^3 in 96 well plates (100 μL total volume per well) and treated for 24 hours in a 37° C. incubator (5% CO2) with increasing concentrations of the Antp-AAC-11-LZ (363-399). 20 μL MTS reagent was then added to each well and plates were incubated for an additional 4 hours. Absorbance was measured at 490 nm using a 96-well plate reader. The extent to which the Antp-AAC-11-LZ (363-399) peptide inhibited cell proliferation was calculated as a percentage of the absorbance in each well containing the Antp-AAC-11-LZ (363-399) peptide relative to wells containing no peptide (negative control). […]
Viability of cells cultured in the 96-well culture plates was assessed by measuring mitochondrial dehydrogenase activity, using the colorimetric CellTiter 96® AQueous One Solution Cell Proliferation Assay (Promega), according to the manufacturer′ instructions. […] The color can then be quantified using a simple colorimetric assay. The results are read on a multiwall scanning spectrophotometer (ELISA reader).
The inventors evaluated the capacity of the Antp-AAC-11-LZ (363-399) peptide to induce cell death a panel of hematologic and solid tumor cell lines, both P53 positive and P53 negative, derived from different tissues of origin, under low serum conditions (0.5-5%). […]

[1] = system: leukemic cells isolated from hMRP8-PML/RARα transgenic mice; test: Acute promyelocytic leukemia (APL) mouse model, survival; assay type: in vivo
Protocol: FIG. 9: Antp-AAC-11-LZ (363-399) peptide treatment of leukemic mice protects against disease progression. Mice were challenged with 10^4 leukemic cells isolated from hMRP8-PML/RARα transgenic mice, allowed to engraft for 10 d, and were then injected intraperitonaly each day for 7 consecutive days with Antp-AAC-11-LZ (363-399) peptide (1.8 mg/kg) or vehicle (normal saline solution), or subcutaneously implanted with a 21-d release pellet containing 5 mg ATRA (n=6 for each treatment). Mice were monitored for survival.
We use an established in vivo APL model based on syngenic grafts of leukemic blasts from hMRP8-PML/RARα transgenic mice, as described by Brown et al. (Brown et al., 1997). This model mimics human APL, both in its biological characteristics and its response to conventional therapeutic drugs such as all-trans retinoic acid (ATRA) and 100% of the mice die of the disease (Brown et al., 1997; Kogan et al., 2000; Lallemand-Breitenbach et al., 1999). […] leukemic cells isolated from bone marrow, spleen, or lymph nodes of leukemic hMRP8-PML/RARα transgenic mice (Brown et al., 1997) were injected into the tail vein of 6-7 week old syngeneic FVB/N mice. Establishment of leukemia was assessed by the appearance of high leukocyte and low platelet counts at around day 8 (Brown et al., 1997). Ten days after transplantation, mice implanted with leukemic cells were randomly assigned to either type of treatment (n=6). Antp-AAC-11-LZ (363-399) peptide (1.8 mg/kg) or vehicle (normal saline solution) was injected intraperitonaly each day for 7 consecutive days. Retinoic acid was administrated by subcutaneous implantation of a 21-d release pellet containing 5 mg ATRA (Innovative Research of America). Mice were then monitored for survival.

[2] = Toxicity of peptide injection in nude mice; details: i.p. twice per week for 4 weeks
Protocol: Nude mice were injected intraperitoneally twice a week for 4 weeks with normal saline solution or the indicated doses of Antp-AAC-11-LZ (363-399) peptide (n=3-4 mice per group) and were monitored daily for body weight (mean±s.e.m).
Nude mice were injected intraperitoneally twice a week for 4 weeks with normal saline solution or the indicated doses of Antp-AAC-11-LZ (377-399) peptide (n=3-4 mice per group) and were monitored daily for body weight (mean±s.e.m).
We first evaluated the toxicity of the Antp-AAC-11-LZ (363-399) peptide in nude mice that were injected intraperitoneally twice per week for 4 weeks with the Antp-AAC-11-LZ (363-399) peptide or normal saline solution (dose range: 0.8-4.8 mg peptide/kg body weight; n=3-4 mice per group).
We first evaluated the toxicity of the Antp-AAC-11-LZ (377-399) peptide in nude mice that were injected intraperitoneally twice per week for 4 weeks with the Antp-AAC-11-LZ (377-399) peptide or normal saline solution (dose range: 1-6 mg peptide/kg body weight; n=3-4 mice per group).

Ac-RQIKIWFKKQNRRMKWKKAKLNAEKLKDFKIRLQYFARGLQVYIRQLRLALQGKT-NH2 [Antp-AAC-11-LZ (363-399)]
cell viability loss of the cancer cell lines (solid tumor cell lines): marked cell viability loss | mice surviving up to 67 d ([1]; n=6 per treatment): Four of 6 | mice surviving up to 76 d ([1]; n=6 per treatment): 2 | mean survival time ([1]; peptide 1.8 mg/kg i.p. daily for 7 days, ATRA 5 mg 21-d release pellet s.c., from day 10 after graft, n=6): 68.5 days | mortality ([2]; 0.8-4.8 mg peptide/kg body weight): No mice died | body weight difference between groups ([2]; 0.8-4.8 mg peptide/kg body weight, FIG. 8A): no significant difference | toxicity to kidney, lungs, heart, liver, pancreas and spleen ([2]; 0.8-4.8 mg peptide/kg, end of experiment): no obvious toxicity
